Values of other authors, collected in patent publication US9322040B2, “Pseudonocardia sp. and method for preparing deoxynyboquinone by utilizing same” (SOUTH CHINA SEA INSTITUTE OF OCEANOLOGY, CHINESE ACADEMY OF …, priority 2011, dated 2016).

System: cancer cell

Compound | cytotoxin activity | activity under anoxic conditions (anoxic conditions) | activity relative to Deoxynyboquinone (compared with the activity of Deoxynyboquinone)
Cc1cc(=O)[nH]c2c1C(=O)c1c(C)cc(=O)n(C)c1C2=O [Deoxynyboquinone] | significant cytotoxin activity | stronger activity can be still shown under anoxic conditions | 
Cc1cc(=O)n(C)c2c1C(=O)c1c(C)cc(=O)n(C)c1C2=O [SCH 538415, reference compound] |  |  | 10 times weaker
